# Results from PubChem BioAssay AID2060354 (Molecular Pharmacology Branch, DTP, NCI, 2025).
# System: 519858-162-T-J1-PDC spheroid growth inhibition
# Assay: Anticancer human tumor 519858-162-T-J1-PDC patient-derived colon adenocarcinoma cell line growth inhibition [TAK]
# Settings: spheroids with HUVEC and MSC; for IC50: curve of first compound; for viability, T/C: stronger effect = lower value
# From the text: Combinatorial screen of targeted agents with TAK-243 and ipatasertib in multi-cell type tumor spheroids
# A high-throughput screen of multi-cell type tumor spheroids was designed to identify active combinations of targeted small molecules and TAK-243 or ipatasertib. Complex spheroids include a stromal component modeled by human endothelial cells (HUVEC) and fibroblasts modeled by human mesenchymal stem cells (MSCs). The concentration ranges selected for each drug and investigational agent were based upon clinically achievable concentrations if the clinical Cmax of the agent was known.
# Compounds. The drugs and investigational agents: TAK-243 (785004), ipatasertib (767898), everolimus (733504), selumetinib (741078), bortezomib (756655), trametinib (758246), ixazomib (758254), vemurafenib (761431), dabrafenib (764134), sapanisertib (764658), alpelisib (765974), and copanlisib (816437), were obtained from the National Cancer Institute (NCI) Developmental Therapeutics Program Chemical Repository. The FDA-approved anticancer drug set is available from the NCI Developmental Therapeutics Program. […] The stock solutions were prepared in dimethyl sulfoxide (DMSO, Sigma-Aldrich, St. Louis, MO, cat. D2650) at 800-fold the tested concentration and stored at -70 degrees C prior to their use. All drugs and investigational agents were tested over a range starting from a high concentration at or near the clinical Cmax and decreasing in half-log increments. If the clinical Cmax for an agent had not been determined, the highest concentration tested was 10 microM.
# NCI60 Cell Culture. NCI60 cell lines were obtained from the NCI Developmental Therapeutics Program Tumor Repository. For each lot of cells, the Repository performed Applied Biosystems AmpFLSTR Identifiler testing with PCR amplification to confirm consistency with the published Identifier STR profile for each cell line. Cells were kept in continuous culture for no more than 20 passages. The optimal seeding densities for each of the cell lines at each time point assessed were determined prior to performing the concentration response studies. Briefly, the NCI60 human tumor lines were grown as monolayers in RPMI 1640 medium supplemented with 10% FBS and 2 mmol/L L-glutamine.
# An additional 2 lines were from the NCI60 cell line panel including melanomas, MALME-3M and SK-MEL-2. Pooled donor human umbilical vein endothelial cells (HUVEC, Lonza, cat. CC-2519) and human mesenchymal stem cells (hMSC, Lonza, cat. PT-2501) were purchased from Lonza (Walkersville, MD).
# PDMR cell lines were grown in complete medium (DC medium): Dulbecco's modified Eagle's medium (DMEM)/F12 supplemented with 5% fetal bovine serum (FBS), 2 mM L-glutamine, 100 U/mL penicillin and 100 µg/ml streptomycin, 0.4 µg/ml hydrocortisone, 10 ng/ml epidermal growth factor (EGF) recombinant human protein, 24 µg/mL adenine, and 0.1 mg/mL primocin. During culture from frozen stock vials, PDMR cells were cultured in the same medium containing 10 µM Y-27632 (see Table 3). The PDCs were cultured in complete DMEM/F12 media without 10 microM Y-27632 dihydrochloride for at least two passages prior to the screen. The pooled donor HUVEC and hMSC were cultured in endothelial cell growth medium 2 (PromoCell, Heidelberg, Germany, cat. C-22011) and mesenchymal stem cell growth medium 2 (PromoCell, cat. C-28009), respectively. For all experiments, HUVEC and hMSC were used at passages </=5.
# For the pre-screen, cell seeding densities were determined from a titration spanning the range from 5,000 to 313 cells per well. The mct-spheroids including 60% malignant cells, 25% HUVEC and 15% MSC dispensed as a mixture into U-bottom Ultra-Low Attachment 384-well plates (Corning, NY)
# High-throughput Drug Combination Screening.
# Prior to their inoculation into 384-well plates, malignant cells, HUVEC, and hMSC were removed from T flasks using TrypLE express (Thermo Fisher Scientific, cat. 12605036) and harvested by centrifugation for 5 min at 233 x g. […]
# 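Further: spheroids exposed to drugs for 7 days.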
compound,measurement,setting,value
CC(C)CC(NC(=O)C(Cc1ccccc1)NC(=O)c1cnccn1)B(O)O (stereo not given) + CC(C)NCC(C(=O)N1CCN(c2ncnc3c2C(C)CC3O)CC1)c1ccc(Cl)cc1,IC50,second compound 0.3 µM,> 10 nM
same,IC50,second compound 0.949 µM,> 10 nM
same,IC50,second compound 3 µM,> 10 nM
same,IC50,second compound 9.49 µM,> 10 nM
same,IC50,second compound 30 µM,> 10 nM
same,"viability, T/C","second compound 0.3 µM, first compound 31.6 pM",84.6%
same,"viability, T/C","second compound 0.3 µM, first compound 0.0001 µM",80.4%
same,"viability, T/C","second compound 0.3 µM, first compound 0.000316 µM",75.7%
same,"viability, T/C","second compound 0.3 µM, first compound 0.001 µM",92.6%
same,"viability, T/C","second compound 0.3 µM, first compound 0.00316 µM",83.2%
same,"viability, T/C","second compound 0.3 µM, first compound 0.01 µM",63.8%
same,"viability, T/C","second compound 0.949 µM, first compound 31.6 pM",83.7%
same,"viability, T/C","second compound 0.949 µM, first compound 0.0001 µM",97.6%
same,"viability, T/C","second compound 0.949 µM, first compound 0.000316 µM",86.4%
same,"viability, T/C","second compound 0.949 µM, first compound 0.001 µM",88.9%
same,"viability, T/C","second compound 0.949 µM, first compound 0.00316 µM",95.6%
same,"viability, T/C","second compound 0.949 µM, first compound 0.01 µM",69.7%
same,"viability, T/C","second compound 3 µM, first compound 31.6 pM",84.4%
same,"viability, T/C","second compound 3 µM, first compound 0.0001 µM",84.7%
same,"viability, T/C","second compound 3 µM, first compound 0.000316 µM",67.9%
same,"viability, T/C","second compound 3 µM, first compound 0.001 µM",84.4%
same,"viability, T/C","second compound 3 µM, first compound 0.00316 µM",78.7%
same,"viability, T/C","second compound 3 µM, first compound 0.01 µM",77.1%
same,"viability, T/C","second compound 9.49 µM, first compound 31.6 pM",100%
same,"viability, T/C","second compound 9.49 µM, first compound 0.0001 µM",88.2%
same,"viability, T/C","second compound 9.49 µM, first compound 0.000316 µM",110%
same,"viability, T/C","second compound 9.49 µM, first compound 0.001 µM",83.2%
same,"viability, T/C","second compound 9.49 µM, first compound 0.00316 µM",66.2%
same,"viability, T/C","second compound 9.49 µM, first compound 0.01 µM",82.8%
same,"viability, T/C","second compound 30 µM, first compound 31.6 pM",85.2%
same,"viability, T/C","second compound 30 µM, first compound 0.0001 µM",97.1%
same,"viability, T/C","second compound 30 µM, first compound 0.000316 µM",96.7%
same,"viability, T/C","second compound 30 µM, first compound 0.001 µM",88.4%
same,"viability, T/C","second compound 30 µM, first compound 0.00316 µM",85.2%
same,"viability, T/C","second compound 30 µM, first compound 0.01 µM",78%
Cn1cnc2c(F)c(Nc3ccc(Br)cc3Cl)c(C(=O)NOCCO)cc21 + CC(C)NCC(C(=O)N1CCN(c2ncnc3c2C(C)CC3O)CC1)c1ccc(Cl)cc1,IC50,second compound 0.3 µM,77.5 nM
same,IC50,second compound 0.949 µM,68.7 nM
same,IC50,second compound 3 µM,95.4 nM
same,IC50,second compound 9.49 µM,139 nM
same,IC50,second compound 30 µM,162 nM
same,"viability, T/C","second compound 0.3 µM, first compound 0.00949 µM",80.3%
same,"viability, T/C","second compound 0.3 µM, first compound 0.03 µM",62.7%
same,"viability, T/C","second compound 0.3 µM, first compound 0.0949 µM",49%
same,"viability, T/C","second compound 0.3 µM, first compound 0.3 µM",30.5%
same,"viability, T/C","second compound 0.3 µM, first compound 0.949 µM",17%
same,"viability, T/C","second compound 0.3 µM, first compound 3 µM",14%
same,"viability, T/C","second compound 0.949 µM, first compound 0.00949 µM",88.5%
same,"viability, T/C","second compound 0.949 µM, first compound 0.03 µM",64%
same,"viability, T/C","second compound 0.949 µM, first compound 0.0949 µM",44.1%
same,"viability, T/C","second compound 0.949 µM, first compound 0.3 µM",32.8%
same,"viability, T/C","second compound 0.949 µM, first compound 0.949 µM",15.7%
same,"viability, T/C","second compound 0.949 µM, first compound 3 µM",16.8%
same,"viability, T/C","second compound 3 µM, first compound 0.00949 µM",73.8%
same,"viability, T/C","second compound 3 µM, first compound 0.03 µM",66.9%
same,"viability, T/C","second compound 3 µM, first compound 0.0949 µM",50.1%
same,"viability, T/C","second compound 3 µM, first compound 0.3 µM",30.7%
same,"viability, T/C","second compound 3 µM, first compound 0.949 µM",24.6%
same,"viability, T/C","second compound 3 µM, first compound 3 µM",15.5%
same,"viability, T/C","second compound 9.49 µM, first compound 0.00949 µM",84.2%
same,"viability, T/C","second compound 9.49 µM, first compound 0.03 µM",85.3%
same,"viability, T/C","second compound 9.49 µM, first compound 0.0949 µM",53.8%
same,"viability, T/C","second compound 9.49 µM, first compound 0.3 µM",36.2%
same,"viability, T/C","second compound 9.49 µM, first compound 0.949 µM",23.4%
same,"viability, T/C","second compound 9.49 µM, first compound 3 µM",17%
same,"viability, T/C","second compound 30 µM, first compound 0.00949 µM",101%
same,"viability, T/C","second compound 30 µM, first compound 0.03 µM",79%
same,"viability, T/C","second compound 30 µM, first compound 0.0949 µM",68.7%
same,"viability, T/C","second compound 30 µM, first compound 0.3 µM",32.2%
same,"viability, T/C","second compound 30 µM, first compound 0.949 µM",21%
same,"viability, T/C","second compound 30 µM, first compound 3 µM",21.4%
